Experimental data from patent US20230104800A1, “COMBINATION THERAPIES AND BIOMARKERS FOR TREATING CANCER” (priority 2020, published 2023).

Tested on: SHEP-MYCN-ER cells
Test: FUCCI high-content live-cell imaging of cell cycle-related cell-killing activity
Format: cell-based, Human
Details: neuroblastoma SHEP-MYCN-ER cells with 200 nM 4-OHT (high MYCN), PC-002: 10 nM YM155, CHOP: 2 μM cyclophosphamide, 0.2 μM Doxorubicin, 8 nM vincristine, imaged every 20 min for 72 h
Experimental: Cultures were incubated at 37° C. in 5% CO2.
Mix each FUCCI Premo™ reagent (Thermo fisher, P36237) by inversion to ensure a homogenous solution. Add the mixed reagent to the SHEP-MYCN-ER cells in complete cell medium and mix gently. Return the cells to the culture incubator for over 16 hour.
High-content live-cell imaging analysis. After transfection, SHEP-MYCN-ER cells were incubated in complete cell medium with concentration indicated of different drugs (PC-002: 10 nM YM155, CHOP: 2 μM cyclophosphamide; 0.2 μM Doxorubicin; 8 nM vincristine). Cells were grown in Array Scan™ Live Cell Module and imaged every 20 min for 72 h under controlled growth conditions (CellInsight™ CX5 High-Content Screening (HSC) Platform, Thermo Fisher; Array Scan™ Live Cell Module, Thermo Fisher).
In the G1 phase of the cell cycle, geminin is broken down and only Cdtl tagged with RFP may be visualized, thus identifying cells in the G1 phase with red fluorescent nuclei. In the S, G2, and M phases, however, Cdt1 is degraded and only geminin tagged with GFP remains, thus identifying cells in these phases with green fluorescent nuclei. During the G1/S transition, both proteins are present in the cells, allowing GFP and RFP fluorescence to be observed—when green and red images are overlaid, the cells appear with yellow (orange) fluorescent nuclei. The dynamic color change from red-to-yellow, yellow-to-green or green-to-red represents the progression through cell cycle (live). The cell dead without color change represents the sensitivity to the drug (death).

Q: Which results are given for “1-(2-Methoxyethyl)-2-methyl-4,9-dioxo-3-(pyrazin-2-ylmethyl)-4,9-dihydro-1H-naphtho[2,3-d] imidazolium bromide [YM155]”?
A: cancer cell-killing activity in the G1 phase of the cell cycle (dead vs live cells) (FIG. 6A): not significantly; cancer cell-killing activity in the S/G2 phase of the cell cycle (dead vs live cells) (FIG. 6B): predominantly; cancer cell-killing activity in the M phase of the cell cycle (dead vs live cells) (FIG. 6C): not significantly
